{"source": "paper PMC3231123", "about": "“A Bacterial Biosensor for Oxidative Stress Using the Constitutively Expressed Redox-Sensitive Protein roGFP2” (Sensors (Basel, Switzerland), 2010)", "biological_target": "T1, roGFP2 (Aequorea victoria, UniProt P42212, C48S/S65T/Q80R/S147C/Q204C)", "T1 construct": "gene GFP; redox-sensitive GFP mutant, His tag (pRSET-roGFP2), expressed in E. coli DH5alpha, Ni-NTA purified, DTT-reduced then desalted", "test": "[…] nm excitation fluorescence ratio of isolated roGFP2, plate reader", "settings": "1 ppm menadione; DTT-reduced roGFP2 1.39 ug/mL; 75 mM HEPES pH 7.0, 140 mM NaCl; monitored 5 min; oxidation of roGFP2, not reversible binding"}
{"compound": "CC1=CC(=O)c2ccccc2C1=O", "note": "[menadione, 2-methyl-1,4-naphtoquinone]", "values": [{"measurement": "% change of 400/490 nm ratio vs t = 0 at 1 ppm", "result": "9.1 to 29.4", "unit": "%"}]}
